Laboratory results taken from patent publication US20140005163A1 (NOVARTIS AG, priority 2010, published 2014).
Values after ≈ are worked out from the molar mass of the structure shown.

How the values were obtained:
PI3K delta = biological target: T1, PI3K delta (Homo sapiens, UniProt O00329); experiment: PI3K delta kinase assay (Kinase-Glo luminescence); assay type: biochemical
T1 construct: for the full-length p110-d subunit are generated and fused by overlapping PCR; p85(iSH2) fusion partner (see partner chain) (N); His tag (C); made in house; host or cells: baculovirus; Tn5 (Trichoplusia ni) or TiniPro insect cells
T1 sequence (O00329 with tags, fused parts or gaps limits assumed): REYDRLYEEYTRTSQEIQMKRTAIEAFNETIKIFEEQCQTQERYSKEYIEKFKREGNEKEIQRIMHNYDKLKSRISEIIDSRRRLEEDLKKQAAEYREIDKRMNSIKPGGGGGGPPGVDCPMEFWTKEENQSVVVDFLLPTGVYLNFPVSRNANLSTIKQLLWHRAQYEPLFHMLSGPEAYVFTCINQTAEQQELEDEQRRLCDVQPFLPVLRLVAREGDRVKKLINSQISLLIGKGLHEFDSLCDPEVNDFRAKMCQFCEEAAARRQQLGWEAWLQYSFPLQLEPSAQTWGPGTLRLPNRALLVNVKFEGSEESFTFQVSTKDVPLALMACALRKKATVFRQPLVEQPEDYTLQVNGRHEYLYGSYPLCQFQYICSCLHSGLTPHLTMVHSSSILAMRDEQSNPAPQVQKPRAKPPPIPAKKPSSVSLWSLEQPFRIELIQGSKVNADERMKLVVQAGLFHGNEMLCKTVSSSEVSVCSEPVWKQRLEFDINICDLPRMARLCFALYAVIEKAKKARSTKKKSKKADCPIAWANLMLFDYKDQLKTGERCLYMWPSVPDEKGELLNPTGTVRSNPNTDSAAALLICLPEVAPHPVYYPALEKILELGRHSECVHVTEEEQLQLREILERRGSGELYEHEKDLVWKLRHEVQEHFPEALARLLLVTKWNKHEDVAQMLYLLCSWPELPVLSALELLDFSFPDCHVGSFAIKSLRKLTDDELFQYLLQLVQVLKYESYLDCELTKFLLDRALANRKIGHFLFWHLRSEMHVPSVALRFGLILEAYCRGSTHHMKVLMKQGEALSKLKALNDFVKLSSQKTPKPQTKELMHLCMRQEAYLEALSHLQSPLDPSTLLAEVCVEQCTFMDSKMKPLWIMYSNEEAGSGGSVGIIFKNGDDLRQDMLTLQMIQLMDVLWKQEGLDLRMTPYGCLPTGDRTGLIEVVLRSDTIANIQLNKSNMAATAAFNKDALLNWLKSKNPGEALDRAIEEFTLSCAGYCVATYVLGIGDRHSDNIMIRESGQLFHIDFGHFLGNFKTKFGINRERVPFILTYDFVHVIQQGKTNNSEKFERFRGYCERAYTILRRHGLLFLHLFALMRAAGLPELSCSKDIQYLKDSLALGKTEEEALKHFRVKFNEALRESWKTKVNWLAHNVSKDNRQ
Summary of the method: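 Inhibition is derived from luminescent detection of unconsumed ATP. The reaction runs for one hour at ambient temperature and contains the δ isoform fusion protein, phosphatidylinositol substrate and low (1 μM) ATP. Eight compound concentrations are tested in single, and a 4-parameter logistic model is used to calculate IC50.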

PI3K beta = biological target: T2, PI3K beta (Homo sapiens, UniProt P42338); experiment: PI3K beta kinase assay (Kinase-Glo luminescence); assay type: biochemical
T2 construct: for the full-length p110-b subunit are generated and fused by overlapping PCR; p85(iSH2) fusion partner (see partner chain) (N); His tag (C); made in house; host or cells: baculovirus; Tn5 (Trichoplusia ni) or TiniPro insect cells
T2 sequence (P42338 with tags, fused parts or gaps limits assumed): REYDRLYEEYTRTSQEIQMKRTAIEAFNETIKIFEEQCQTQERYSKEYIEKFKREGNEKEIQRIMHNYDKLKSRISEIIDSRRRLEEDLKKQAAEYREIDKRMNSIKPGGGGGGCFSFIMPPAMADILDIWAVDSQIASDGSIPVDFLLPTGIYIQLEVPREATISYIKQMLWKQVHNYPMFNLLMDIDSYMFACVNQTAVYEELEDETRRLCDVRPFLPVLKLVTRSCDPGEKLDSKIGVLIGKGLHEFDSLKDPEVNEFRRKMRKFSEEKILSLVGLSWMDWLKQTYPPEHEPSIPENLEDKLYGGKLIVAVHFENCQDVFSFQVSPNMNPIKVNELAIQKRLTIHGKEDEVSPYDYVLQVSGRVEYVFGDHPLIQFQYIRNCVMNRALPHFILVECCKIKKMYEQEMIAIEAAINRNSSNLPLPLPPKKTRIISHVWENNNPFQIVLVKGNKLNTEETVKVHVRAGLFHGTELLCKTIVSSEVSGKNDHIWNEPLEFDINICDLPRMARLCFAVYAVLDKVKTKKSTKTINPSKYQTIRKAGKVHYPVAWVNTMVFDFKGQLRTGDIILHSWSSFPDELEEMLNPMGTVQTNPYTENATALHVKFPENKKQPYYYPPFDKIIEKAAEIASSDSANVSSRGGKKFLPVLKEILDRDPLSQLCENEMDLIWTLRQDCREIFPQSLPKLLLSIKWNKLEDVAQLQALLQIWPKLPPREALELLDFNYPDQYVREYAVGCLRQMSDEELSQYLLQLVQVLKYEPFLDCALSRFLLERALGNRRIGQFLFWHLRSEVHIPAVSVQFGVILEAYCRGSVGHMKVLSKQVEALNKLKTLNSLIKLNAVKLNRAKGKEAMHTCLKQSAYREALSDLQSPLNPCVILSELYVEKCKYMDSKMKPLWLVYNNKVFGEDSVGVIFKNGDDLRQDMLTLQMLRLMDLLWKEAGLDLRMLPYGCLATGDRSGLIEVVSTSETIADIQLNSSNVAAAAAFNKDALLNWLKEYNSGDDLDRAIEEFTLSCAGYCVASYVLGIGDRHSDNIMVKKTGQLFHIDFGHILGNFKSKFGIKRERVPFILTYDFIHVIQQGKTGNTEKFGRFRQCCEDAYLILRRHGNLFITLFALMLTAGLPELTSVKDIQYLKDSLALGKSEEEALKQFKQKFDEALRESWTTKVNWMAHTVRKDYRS
Summary of the method: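 p110β full-length/p85 iSH2 construct (BV-949), 25 nM, with 1 μM ATP and 10 μg/mL phosphatidylinositol in 10 mM Tris pH 7.5, 3 mM MgCl2, 50 mM NaCl, 0.05% CHAPS, 1 mM DTT. 60 min at room temperature; ATP remaining read by Kinase-Glo luminescence. IC50 from 8-point four-parameter logistic fit.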

PI3K alpha = biological target: T3, PI3K alpha (Homo sapiens, UniProt P42336); experiment: PI3K alpha kinase assay (Kinase-Glo luminescence); assay type: biochemical
T3 construct: p85(iSH2) fusion partner (see partner chain) (N); His tag (C); made in house; host or cells: baculovirus; Tn5 (Trichoplusia ni) or TiniPro insect cells
T3 sequence (P42336 with tags, fused parts or gaps limits assumed): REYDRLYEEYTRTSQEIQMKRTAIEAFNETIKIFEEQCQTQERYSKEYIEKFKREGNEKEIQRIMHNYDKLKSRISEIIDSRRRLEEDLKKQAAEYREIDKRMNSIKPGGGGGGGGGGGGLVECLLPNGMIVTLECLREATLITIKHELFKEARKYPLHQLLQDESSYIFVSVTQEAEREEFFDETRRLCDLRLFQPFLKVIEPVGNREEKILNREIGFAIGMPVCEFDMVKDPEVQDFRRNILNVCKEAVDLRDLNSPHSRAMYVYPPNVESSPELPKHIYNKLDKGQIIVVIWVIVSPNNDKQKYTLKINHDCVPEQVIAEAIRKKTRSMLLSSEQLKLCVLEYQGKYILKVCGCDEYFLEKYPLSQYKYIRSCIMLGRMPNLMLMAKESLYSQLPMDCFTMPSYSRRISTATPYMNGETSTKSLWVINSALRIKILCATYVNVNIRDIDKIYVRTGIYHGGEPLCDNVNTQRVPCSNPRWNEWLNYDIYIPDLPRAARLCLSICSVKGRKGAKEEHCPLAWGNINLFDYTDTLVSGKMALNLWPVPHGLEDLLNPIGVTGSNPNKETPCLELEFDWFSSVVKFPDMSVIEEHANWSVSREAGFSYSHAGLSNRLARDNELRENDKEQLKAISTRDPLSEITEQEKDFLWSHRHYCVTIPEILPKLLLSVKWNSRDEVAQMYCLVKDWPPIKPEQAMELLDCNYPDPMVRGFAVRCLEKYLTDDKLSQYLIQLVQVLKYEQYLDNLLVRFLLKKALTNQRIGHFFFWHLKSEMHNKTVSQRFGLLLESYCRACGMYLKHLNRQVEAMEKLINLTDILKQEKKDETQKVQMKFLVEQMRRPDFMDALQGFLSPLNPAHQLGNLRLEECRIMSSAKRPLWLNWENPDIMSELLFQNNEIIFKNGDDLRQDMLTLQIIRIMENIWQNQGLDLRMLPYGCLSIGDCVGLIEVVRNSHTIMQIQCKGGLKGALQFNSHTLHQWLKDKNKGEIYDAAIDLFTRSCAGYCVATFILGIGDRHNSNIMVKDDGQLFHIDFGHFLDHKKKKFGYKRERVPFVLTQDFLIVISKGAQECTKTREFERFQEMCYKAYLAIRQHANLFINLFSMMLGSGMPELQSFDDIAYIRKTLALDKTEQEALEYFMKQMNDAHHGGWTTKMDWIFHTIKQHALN
Summary of the method: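 Luminescent ATP-depletion assay (Kinase-Glo) with 10 nM PI3Kα and 10 μg/mL phosphatidylinositol as lipid substrate at 1 μM ATP. Incubation lasts 60 min at room temperature.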

Solubility at pH 6.8 = assay type: physicochemical; details: pH 6.8, aqueous buffer, thermodynamic from solid; read-out: solubility
Summary of the method: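 Solubility was measured at pH 6.8 following the cited Zhou et al. (2007) procedure.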

[1] = tested on: S6 Ribosomal Protein phosphorylation Ser235/236 in TSC1 null mouse embryo fibroblast (MEF) cells; experiment: Reverse protein array assay, S6 Ribosomal Protein phosphorylation Ser235/236 in TSC1 null MEF cells; assay type: cell-based; details: 1 h, pS6 ribosomal protein Ser235/236, 60 minutes incubation, read-out: p-S6 IC50
Summary of the method: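 TSC1−/− MEFs, seeded and held ≥20 h at 37 °C/5% CO2, were exposed to 8-step serial compound dilutions (0.02% DMSO final; DMSO vehicle control) for 60 min at 37 °C. Cells were then lysed on ice for 10 min and lysates spotted onto reverse protein array chips.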

SMILES	IC50 (PI3K delta)	IC50 (PI3K beta)	IC50 (PI3K alpha)	solubility (Solubility at pH 6.8)	IC50 [1]
Cc1ncc(-c2ccc3ncc4c(c3c2)n(-c2cn(C)nc2Cl)c(=O)n4C)cc1N [Example 88.1, 8-(5-Amino-6-methyl-pyridin-3-yl)-1-(3-chloro-1-methyl-1H-pyrazol-4-yl)-3-methyl-1,3-dihydro-imidazo[4,5-c]quinolin-2-one]	4 nM	28 nM	11 nM	3 µg/mL (≈ 7.14 µM)	2 nM
CCOc1cc(-c2ccc3ncc4c(c3c2)n(-c2cn(C)nc2C)c(=O)n4C)ccn1 [Example 91, 1-(1,3-Dimethyl-1H-pyrazol-4-yl)-8-(2-ethoxy-pyridin-4-yl)-3-methyl-1,3-dihydro-imidazo[4,5-c]quinolin-2-one]	203 nM	409 nM	83 nM	13 µg/mL (≈ 31.4 µM)	36 nM
COc1ccc(-c2ccc3ncc4c(c3c2)n(-c2cn(CCO)nc2C)c(=O)n4C)cn1 [Example 103.1, 1-[1-(2-Hydroxy-ethyl)-3-methyl-1H-pyrazol-4-yl]-8-(6-methoxy-pyridin-3-yl)-3-methyl-1,3-dihydro-imidazo[4,5-c]quinolin-2-one]	19 nM	101 nM	20 nM	38 µg/mL (≈ 88.3 µM)	13 nM
CCOc1ccc(-c2ccc3ncc4c(c3c2)n(-c2cn(CCO)nc2C)c(=O)n4C)cn1 [Example 103.2, 8-(6-Ethoxy-pyridin-3-yl)-1-[1-(2-hydroxy-ethyl)-3-methyl-1H-pyrazol-4-yl]-3-methyl-1,3-dihydro-imidazo[4,5-c]quinolin-2-one]	71 nM	332 nM	42 nM	10 µg/mL (≈ 22.5 µM)	3 nM
CCOc1ccc(-c2ccc3ncc4c(c3c2)n(-c2cn(CC(=O)N3CCC3)nc2C)c(=O)n4C)cn1 [Example 138, 1-[1-(2-Azetidin-1-yl-2-oxo-ethyl)-3-methyl-1H-pyrazol-4-yl]-8-(6-ethoxy-pyridin-3-yl)-3-methyl-1,3-dihydro-imidazo[4,5-c]quinolin-2-one]	42 nM	377 nM	13 nM	26 µg/mL (≈ 52.3 µM)	3 nM
CNc1ncc(-c2ccc3ncc4c(c3c2)n(-c2cn(C)nc2C)c(=O)n4C)cc1C(F)(F)F [Example 144.3, 1-(1,3-Dimethyl-1H-pyrazol-4-yl)-3-methyl-8-(6-methylamino-5-trifluoromethyl-pyridin-3-yl)-1,3-dihydro-imidazo[4,5-c]quinolin-2-one]	9 nM	16 nM	10 nM	44 µg/mL (≈ 94.1 µM)	< 0.5 nM
CNc1ncc(-c2ccc3ncc4c(c3c2)n(-c2cn(C)nc2C)c(=O)n4C)cc1Cl [Example 146.1, 8-(5-Chloro-6-methylamino-pyridin-3-yl)-1-(1,3-dimethyl-1H-pyrazol-4-yl)-3-methyl-1,3-dihydro-imidazo[4,5-c]quinolin-2-one]	16 nM	45 nM	14 nM	> 434 µg/mL	< 0.5 nM
CCn1cc(-n2c(=O)n(C)c3cnc4ccc(-c5cnc(NC)c(Cl)c5)cc4c32)c(C)n1 [Example 146.2, 8-(5-Chloro-6-methylamino-pyridin-3-yl)-1-(1-ethyl-3-methyl-1H-pyrazol-4-yl)-3-methyl-1,3-dihydro-imidazo[4,5-c]quinolin-2-one]	30 nM	66 nM	119 nM	6 µg/mL (≈ 13.4 µM)	2 nM
Cc1nn(C(C)C)cc1-n1c(=O)n(C)c2cnc3ccc(-c4cnc(F)c(N)c4)cc3c21 [Example 149.1, 8-(5-Amino-6-fluoro-pyridin-3-yl)-1-(1-isopropyl-3-methyl-1H-pyrazol-4-yl)-3-methyl-1,3-dihydro-imidazo[4,5-c]quinolin-2-one]	17 nM	68 nM	48 nM	13 µg/mL (≈ 30.1 µM)	9 nM
Cc1nn(C)cc1-n1c(=O)n(C)c2cnc3ccc(-c4cnc(F)c(N)c4)cc3c21 [Example 149.2, 8-(5-Amino-6-fluoro-pyridin-3-yl)-1-(1,3-dimethyl-1H-pyrazol-4-yl)-3-methyl-1,3-dihydro-imidazo[4,5-c]quinolin-2-one]	8 nM	12 nM	7 nM	21 µg/mL (≈ 52.1 µM)	3 nM
CCn1cc(-n2c(=O)n(C)c3cnc4ccc(-c5cnc(F)c(NC)c5)cc4c32)c(C)n1 [Example 150.1, 1-(1-Ethyl-3-methyl-1H-pyrazol-4-yl)-8-(6-fluoro-5-methylamino-pyridin-3-yl)-3-methyl-1,3-dihydro-imidazo[4,5-c]quinolin-2-one]	8 nM	17 nM	7 nM	5 µg/mL (≈ 11.6 µM)	1 nM
CCNc1cc(-c2ccc3ncc4c(c3c2)n(-c2c(C)nn(C)c2C)c(=O)n4C)cnc1Cl [Example 153.1, 8-(6-Chloro-5-ethylamino-pyridin-3-yl)-3-methyl-1-(1,3,5-trimethyl-1H-pyrazol-4-yl)-1,3-dihydro-imidazo[4,5-c]quinolin-2-one]	3 nM	14 nM	10 nM	6 µg/mL (≈ 13 µM)	4 nM
CCNc1cc(-c2ccc3ncc4c(c3c2)n(-c2cn(C(C)C)nc2C)c(=O)n4C)cnc1CO [Example 155.3, 8-(5-Ethylamino-6-hydroxymethyl-pyridin-3-yl)-1-(1-isopropyl-3-methyl-1H-pyrazol-4-yl)-3-methyl-1,3-dihydro-imidazo[4,5-c]quinolin-2-one]	10 nM	46 nM	30 nM	> 472 µg/mL	1 nM
CCNc1cc(-c2ccc3ncc4c(c3c2)n(-c2c(C)nn(C)c2C)c(=O)n4C)cnc1CO [Example 155.4, 8-(5-Ethylamino-6-hydroxymethyl-pyridin-3-yl)-3-methyl-1-(1,3,5-trimethyl-1H-pyrazol-4-yl)-1,3-dihydro-imidazo[4,5-c]quinolin-2-one]	11 nM	55 nM	125 nM	62 µg/mL (≈ 136 µM)	18 nM
CCNc1cc(-c2ccc3ncc4c(c3c2)n(-c2cn(CC)nc2C)c(=O)n4C)cnc1COC [Example 157, 8-(5-Ethylamino-6-methoxymethyl-pyridin-3-yl)-1-(1-ethyl-3-methyl-1H-pyrazol-4-yl)-3-methyl-1,3-dihydro-imidazo[4,5-c]quinolin-2-one]	9 nM	28 nM	7 nM	> 472 µg/mL	1 nM
CNc1cc(-c2ccc3ncc4c(c3c2)n(-c2cn(C)nc2C)c(=O)n4C)cnc1COC [Example 159, 1-(1,3-Dimethyl-1H-pyrazol-4-yl)-8-(6-methoxymethyl-5-methylamino-pyridin-3-yl)-3-methyl-1,3-dihydro-imidazo[4,5-c]quinolin-2-one]	25 nM	100 nM	34 nM	> 444 µg/mL	8 nM
CCNc1cc(-c2ccc3ncc4c(c3c2)n(-c2cn(C)nc2C)c(=O)n4C)cnc1CC [Example 161, 1-(1,3-Dimethyl-1H-pyrazol-4-yl)-8-(6-ethyl-5-ethylamino-pyridin-3-yl)-3-methyl-1,3-dihydro-imidazo[4,5-c]quinolin-2-one]	8 nM	18 nM	9 nM	433 µg/mL (≈ 981 µM)	2 nM
CCOCc1cc(-c2ccc3ncc4c(c3c2)n(-c2cn(C)nc2C)c(=O)n4C)cnc1N [Example 166.1, 8-(6-Amino-5-ethoxymethyl-pyridin-3-yl)-1-(1,3-dimethyl-1H-pyrazol-4-yl)-3-methyl-1,3-dihydro-imidazo[4,5-c]quinolin-2-one]	3 nM	37 nM	9 nM	33 µg/mL (≈ 74.4 µM)	3 nM
Cn1cc(-n2c(=O)n(C)c3cnc4ccc(-c5cnc(N)c(CO)c5)cc4c32)c(Cl)n1 [Example 169.3, 8-(6-Amino-5-hydroxymethyl-pyridin-3-yl)-1-(3-chloro-1-methyl-1H-pyrazol-4-yl)-3-methyl-1,3-dihydro-imidazo[4,5-c]quinolin-2-one]	< 3 nM	7 nM	5 nM	10 µg/mL (≈ 22.9 µM)	1.32 nM
